Assay results published in US20250144227A1, “C-16 MODIFIED TRIOXACARCINS, ANTIBODY DRUG CONJUGATES, AND USES THEREOF” (President and Fellows of Harvard College, priority 2021, published 2025).
Read-outs that look alike come from different tables or passages of the source.

Legend:
MES-SA/Dx-5 cells = experiment: Cell proliferation assay (resazurin, CellTiter-Blue), MES-SA/Dx-5 cells; format: cell-based; details: Homo sapiens
Procedure: (§1) Cell Culture: All cell-culture work was conducted in a class II biological safety cabinet. H460 cells (P2-P4, American Type Culture Collection) were maintained in RPMI-1640 medium supplemented with 10% fetal bovine serum (FBS). HL-60 cells (P2-P4, American Type Cuture Collection) were maintained in RPMI-1640 medium supplemented with 10% FBS. MES-SA/Dx-5 cells (P2-P4, European Collection of Authenticated Cell Cultures) were maintained in McCoy's 5A medium supplemented with 10% FBS.
(§2) Cell Proliferation Assay: H460 and MES-SA/Dx-5 cells were grown to approximately 80% confluence, and then were trpysinized, collected, and pelleted by centrifugation (10 min at 183 x g, 24° C.), and HL-60 cells were grown to confluence and directly pelleted by centrifugation (10 min at 183 × g, 24° C.). The supernatant was discarded and the cell pellet was resuspended in 10 mL of fresh medium. A sample was diluted 10-fold in fresh medium, and the concentration of cells was determined using a hemacytometer. The cell suspension was diluted to a concentration of 3000 cells/100 μL. The wells of a pre-sterilized 96-well plate were charged with 100 μL per well of the diluted cellular suspension. The plate was incubated for 24 h at 37° C. (5% CO2).
(§3) Stock solutions of each compound in DMSO were diluted with the appropriate media to 100 nM solutions (1% DMSO), which were then serially diluted with the appropriate media, and 100-uL aliquots of the resulting solutions were added to the wells containing adhered cells to achieve final concentrations of 0.39 nM to 50 nM. After incubating at 37° C. for 72 h (5% CO2), 20 μL of resazurin solution (Promega CellTiter-Blue® Cell Viability Assay) was added to each well. After incubating at 37° C. for 2.0 h (5% CO2), the fluorescence (544 nm excitation/590 nm emission) was recorded using a microplate reader (SpectraMax PLUS384) as a measure of viable cells.
(§4) Percent growth inhibition was calculated for each well, based upon the following formula: Percent growth inhibition=100×(S−B0)/(Bt−B0) where S is the sample fluorescence, Bt is the average fluorescence of an untreated population of cells at the completion of the assay, and B0 is the average fluorescence of an untreated population of cells at the beginning of the assay.
(§5) Each compound was assayed at eight separate concentrations per experiment. The percent inhibition at each concentration was plotted against log (concentration), and a curve fit was generated using the XLfit4 plugin (IDBS Software) running in Excel (Microsoft). GI50 values were computed to reflect the concentrations at which the resulting curves pass through 50% inhibition.

[1] = tested on: Ramos cells (B lymphocyte cells); experiment: Growth inhibition of Ramos cells; format: cell-based; details: Homo sapiens
Procedure: as §3, §4, §5

H460 cells = experiment: Cell proliferation assay (resazurin, CellTiter-Blue), H460 cells; format: cell-based; details: for GI50: Homo sapiens
Procedure: as §1, §2, §3, §4, §5

[2] = 1H NMR studies of decomposition of the C16 thiol; format: physicochemical; details: on an hour time scale
[3] = Drug-linker stability assay (LC-MS); format: physicochemical; details: after 1 week, physiologically relevant pH and temperature (37 C)
Procedure: Stability Assay: In a 1.5 mL screw-top conical plastic vial, 42 (FIG. 1A) or 39 (FIG. 1B) was dissolved in 270 μL of DMSO (5 mM). 12 μL of this DMSO drug-linker solution was mixed with 576 μL pH 5.0 sodium acetate buffer (50 mM sodium acetate, 100 mM NaCl, 4 mM EDTA). 1-naphthalene acetic acid in DMSO (12 μL, 5 mM, 1 equiv.) was added as an internal standard. The vial was then placed in a heating block at 37 C and protected from direct light. 25 μL aliquots of the reaction mixture were removed at 0 h, 4 h, 24 h, 48 h, 72 h, and 1 week and analyzed by LC-MS. LC-MS peaks were integrated using Agilent OpenLab ChemStation and the areas of each peak were normalized to 1-napthalene acetic acid at 280 nM. Percent drug-linker remaining is defined as the normalized peak area at a given time point divided by the normalized peak area at 0 hours x 100%. Each assay was also performed at pH 7.4 (phosphate-buffered solution, Corning), and assays at each pH value were performed with and without the addition of 8 mM N-acetylcysteine.

cathepsin B = target: T1, cathepsin B (Homo sapiens, UniProt P07858); experiment: Drug-linker release assay with cathepsin B (LC-MS); format: in vitro ADME; details: cathepsin B enzyme solution in buffer; cathepsin B added, pH 5.0 sodium acetate buffer, 37 C; read-out: Half-life of liberation of the C16 primary amine warhead
T1 construct: purchased Enzo Life Sciences
Procedure: Release Assay: In a 1.5 mL screw-top conical plastic vial, 42 was dissolved in 270 μL of DMSO (5 mM). 12 μL of this DMSO drug-linker solution was mixed with a DMSO solution of N-acetylcysteine (10 mM, 12 μL, 2 equiv.). To the solution was then added 510 μL pH 5.0 sodium acetate buffer (50 mM sodium acetate, 100 mM NaCl, 4 mM EDTA, 8 mM N-acetylcysteine). 1—Naphthalene acetic acid in DMSO (12 μL, 5 mM, 1 equiv.) was added as an internal standard. The vial was then placed in a heating block at 37 C for 30 minutes. After 30 minutes, 54 μL of cathepsin B solution (379 U/mL, Enzo Life Sciences) was added. The vial was returned to the heating block at 37 C and protected from direct light. 25 μL aliquots of the reaction mixture were removed at 0 min, 20 min, 40 min, 60 min, 120 min, and 180 min and analyzed by LC-MS. LC-MS peaks were integrated using Agilent OpenLab ChemStation and the areas of each peak were normalized to 1-napthalene acetic acid at 280 nM. Percent drug-linker remaining is defined as the normalized peak area at a given time point divided by the normalized peak area at 0 hours×100% (FIG. 2A). A similar procedure was used for the release assay of 39, using glucuronidase instead of cathepsin B (FIG. 2B).

[4] = patients with metastatic cancer; only problematic at doses beyond those which affected tumor volume decrease; cited from earlier work
[5] = MES-SA/Dx5, MES-SA/Dx-5 cells, 72 h incubation, read-out: GI50

Work on `C=CCOCC12OC3c4c(C)cc5c(OC)c6c(c(O)c5c4O[C@](OC)(C3O1)[C@@]21CO1)C(=O)CCC6` (some centres unmarked) [TP-6] yielded a GI50 (MES-SA/Dx-5 cells; [5]) of 0.017 µM.

`COCC12OC3c4c(C)cc5c(OC)c6c(c(O)c5c4O[C@](OC)(C3O1)[C@@]21CO1)C(=O)CCC6` (stereo partly drawn) [compound 43, (2R,2′R,3a′R,4'S, 13a′R)-12′-hydroxy-7′, 13a′-dimethoxy-2′-(methoxymethyl)-5′-methyl-3a′ 4′,8′,9′,10′,13a′-hexahydro-2′H, 11′H-spiro[oxirane-2,1′-[2,4]epoxyfuro[3,2-b]naphtho[2,3-h]chromen]-11′-one] gave a GI50 [1] of 0.0026 ± 0.0008 µM.

With `COc1c2c(c(O)c3c4c(c(C)cc13)C1OC3(CO)OC1[C@@](OC)(O4)[C@@]31CO1)C(=O)CCC2` (some centres unmarked) [TP-1] the GI50 (MES-SA/Dx-5 cells; MES-SA/Dx5, 72 h) was 0.008 µM.

In the case of `COc1c2c(c(O)c3c4c(c(C)cc13)C1OC3(CN=[N+]=[N-])OC1[C@@](OC)(O4)[C@@]31CO1)C(=O)CCC2` (some centres unmarked) [TP-9], the GI50 (MES-SA/Dx-5 cells; MES-SA/Dx5, 72 h) is reported as 0.033 µM.

For `COc1c2c(c(O)c3c4c(c(C)cc13)C1OC3(CS)OC1[C@@](OC)(O4)[C@@]31CO1)C(=O)CCC2` (stereo partly drawn) [compound 34, (25,2'S,3a′R,13a′R)-12′-hydroxy-2′-(mercaptomethyl)-7′,13a′-dimethoxy-5′-methyl-3a′, 4′,8′,9′,10′,13a′-hexahydro-2′H,11′H-spiro [oxirane-2,1′-[2,4]epoxyfuro[3,2-b]naphtho[2,3-h]chromen]-11′-one], the GI50 (H460 cells; NCI-H460, 72 h) was greater than 0.1 µM, the “Effect of the C16 modification on potency (in words)” value (H460 cells; comment on the data of Table 2 (H460 cells)) was “lack of activity” and the “Decomposition of the unprotected thiol” value [2] was “rapid, non-productive, decomposition pathway”.

`COc1c2c(c(O)c3c4c(c(C)cc13)C1OC3(C)OC1[C@@](OC)(O4)[C@@]31CO1)C(=O)CCC2` (stereo partly drawn) [compound 45, (2R,2′R,3a'S,4'S)-12′-hydroxy-7′,13a′-dimethoxy-2′,5′-dimethyl-3a′ 4′,8′,9′,10′,13a′-hexahydro-2′H,11′H-spiro [oxirane-2,1′-[2,4]epoxyfuro[3,2-b]naphtho[2,3-h]chromen]-11′-one] gave a GI50 [1] of 0.02 ± 0.005 µM.

Work on `COc1c2c(c(O)c3c4c(c(C)cc13)[C@H]1O[C@]3(CNC(=O)OCc5ccc(NC(=O)[C@H](C)NC(=O)[C@@H](NC(=O)CCOCCOCCOCCOCCN6C(=O)C=CC6=O)C(C)C)cc5)O[C@@H]1C(OC)(O4)[C@@]31CO1)C(=O)CCC2` (stereo partly drawn) [compound 42, 4-((17S,20S)-1-(2,5-dioxo-2,5-dihydro-1H-pyrrol-1-yl)-17-isopropyl-20-methyl-15,18-dioxo-3,6,9,12-tetraoxa-16,19-diazahenicosan-21-amido)benzyl (((2R,2′R,3a'S,4′R)-12′-hydroxy-7′,13a′-dimethoxy-5′-methyl-11′-oxo-3a′,8′,9′,10′, 11′, 13a′-hexahydro-2′H,4′H-spiro [oxirane-2,1′-[2,4]epoxyfuro[3,2-b]naphtho[2,3-h]chromen]-2′-yl)methyl)carbamate] yielded a Percent drug-linker remaining [3] of 75% and a half-life at 100 µM (cathepsin B) of roughly 15 min.

In the case of `COc1c2c(c(O)c3c4c(c(C)cc13)C1OC3(COCc5ccccc5)OC1[C@@](O)(O4)[C@@]31CO1)C(=O)CCC2` (some centres unmarked) [TP-4], the GI50 (MES-SA/Dx-5 cells; [5]) is reported as greater than 0.1 µM.

`CCCOCC12OC3c4c(C)cc5c(OC)c6c(c(O)c5c4O[C@](OC)(C3O1)[C@@]21CO1)C(=O)CCC6` (some centres unmarked) [TP-5] gave a GI50 (MES-SA/Dx-5 cells; [5]) of 0.025 µM.

Molecule `C#CCOCC12OC3c4c(C)cc5c(OC)c6c(c(O)c5c4O[C@](OC)(C3O1)[C@@]21CO1)C(=O)CCC6` (some centres unmarked) [TP-7] has a GI50 (MES-SA/Dx-5 cells; MES-SA/Dx5, 72 h) of 0.015 µM.

With `COc1c2c(c(O)c3c4c(c(C)cc13)C1OC3(COC5CC(C)(O)C(OC(C)=O)C(C)O5)OC1[C@@](OC)(O4)[C@@]31CO1)C(=O)CCC2` (some centres unmarked) [TP-12] the GI50 (MES-SA/Dx-5 cells; MES-SA/Dx5, 72 h) was 0.05 µM.

In the case of LL-D49194a1, the Dose-limiting toxicity [4] is given as “pancarditis was the only significant dose-limiting toxicity”.

For `COc1c2c(c(O)c3c4c(c(C)cc13)C1OC3(CO)OC1[C@@](O)(O4)[C@@]31CO1)C(=O)CCC2` (stereo partly drawn) [compound 20, (25,2′R,3a′R, 13a′R)-12′, 13a′-dihydroxy-2′-(hydroxymethyl)-7′-methoxy-5′-methyl-3a′, 4′,8′,9′,10′,13a′-hexahydro-2′H,11′H-spiro[oxirane-2,1′-[2.4]epoxyfuro[3,2-b]naphtho[2,3-h]chromen]-11′-one], the GI50 (H460 cells; NCI-H460, H460 cells, 72 h incubation, read-out: GI50) was 0.015 µM.

In the case of `COc1c2c(c(O)c3c4c(c(C)cc13)[C@@H]1O[C@]3(CNC(=O)OCc5ccc(O[C@@H]6O[C@H](C(=O)O)[C@@H](O)[C@H](O)[C@H]6O)c(-n6cc(COCCOCCOCCOCCN7C(=O)C=CC7=O)nn6)c5)O[C@H]1[C@@](OC)(O4)[C@@]31CO1)C(=O)CCC2` [compound 39, (2S,3S,4S,5R,6S)-6-(2-(4-(13-(2,5-Dioxo-2,5-dihydro-1H-pyrrol-1-yl)-2,5,8,11-tetraoxatridecyl)-1H-1,2,3-triazol-1-yl)-4-((((((2R,2′R,3a′R,4'S,13a′R)-12′-hydroxy-7′,13a′-dimethoxy-5′-methyl-11′-oxo-3a′,8′,9′,10′,11′,13a′-hexahydro-2′H, 4′H-spiro [oxirane-2,1′-[2.4]epoxyfuro[3,2-b]naphtho[2,3-h]chromen]-2′-yl)methyl)carbamoyl)oxy)methyl)phenoxy)-3,4,5-trihydroxytetrahydro-2H-pyran-2-carboxylic acid], the Percent drug-linker remaining [3] is reported as 75%.
